Reference: PubChem BioAssay AID248 (DTP/NCI, 2004)
Several values for one entry are separate records, joined by “and”; a condition that tells them apart may be missing. Identical values can stand only once. Inconclusive results and toxic doses are left out. Cut-off read from the data, not from the text of the source: active = T/C of 150% or more; inactive = T/C below 125%.

Tested on: L1210 leukemia ip in BDF1 mice, survival T/C
Assay: NCI In Vivo Anticancer Drug Screen. Data for tumor model L1210 Leukemia (intraperitoneal) in B6D2F1 (BDF1) mice
Conditions: endpoint: mean survival time, higher = longer survival
Procedure, shortened: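 Read-out is survival time, reported as the treated-group measurement over the vehicle-control measurement.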

[1] = dose: 5.0 mg/kg/injection, schedule: Q01DX009 (ip), vehicle: saline with Tween-80
[2] = dose: 10.0 mg/kg/injection, schedule: Q01DX009 (ip), vehicle: saline with Tween-80
[3] = dose: 25.0 mg/kg/injection, schedule: Q01DX009 (ip), vehicle: saline with Tween-80
[4] = dose: 50.0 mg/kg/injection, schedule: Q01DX009 (ip), vehicle: saline with Tween-80
[5] = dose: 100.0 mg/kg/injection, schedule: Q04DX002 (ip), vehicle: Klucel (hydroxypropylcellulose) (HPC)
[6] = dose: 200.0 mg/kg/injection, schedule: Q04DX002 (ip), vehicle: Klucel (hydroxypropylcellulose) (HPC)
[7] = dose: 100.0 mg/kg/injection, schedule: Q01DX001 (ip), vehicle: carboxymethylcellulose (CMC)
[8] = dose: 200.0 mg/kg/injection, schedule: Q01DX001 (ip), vehicle: carboxymethylcellulose (CMC)
[9] = dose: 400.0 mg/kg/injection, schedule: Q01DX001 (ip), vehicle: carboxymethylcellulose (CMC)
[10] = dose: 100.0 mg/kg/injection, schedule: Q01DX001 (ip), vehicle: saline with Tween-80
[11] = dose: 200.0 mg/kg/injection, schedule: Q01DX001 (ip), vehicle: saline with Tween-80
[12] = dose: 100.0 mg/kg/injection, schedule: Q01DX009 (ip), vehicle: Klucel (hydroxypropylcellulose) (HPC)
[13] = dose: 200.0 mg/kg/injection, schedule: Q01DX009 (ip), vehicle: Klucel (hydroxypropylcellulose) (HPC)
[14] = dose: 100.0 mg/kg/injection, schedule: Q01DX001 (ip), vehicle: saline
[15] = dose: 200.0 mg/kg/injection, schedule: Q01DX001 (ip), vehicle: saline
[16] = dose: 400.0 mg/kg/injection, schedule: Q01DX001 (ip), vehicle: saline
[17] = dose: 400.0 mg/kg/injection, schedule: Q01DX009 (ip), vehicle: Klucel (hydroxypropylcellulose) (HPC)
[18] = dose: 6.25 mg/kg/injection, schedule: Q01DX009 (ip), vehicle: Klucel (hydroxypropylcellulose) (HPC)
[19] = dose: 12.5 mg/kg/injection, schedule: Q01DX009 (ip), vehicle: Klucel (hydroxypropylcellulose) (HPC)
[20] = dose: 25.0 mg/kg/injection, schedule: Q01DX009 (ip), vehicle: Klucel (hydroxypropylcellulose) (HPC)

Measured: T/C

Cc1ccc(C)[nH]1
inactive: [1] 96 % of control | dose: 5.0 mg/kg/injection, schedule: Q04DX003 (ip), vehicle: saline with Tween-80 93 % of control | [2] 94 % of control | dose: 10.0 mg/kg/injection, schedule: Q04DX003 (ip), vehicle: saline with Tween-80 98 % of control | dose: 20.0 mg/kg/injection, schedule: Q01DX009 (ip), vehicle: saline with Tween-80 100 % of control | dose: 20.0 mg/kg/injection, schedule: Q04DX003 (ip), vehicle: saline with Tween-80 93 % of control

Oc1ccc(Cl)cc1Br
inactive: [3] 100 % of control | [4] 88 % of control | dose: 100.0 mg/kg/injection, schedule: Q01DX009 (ip), vehicle: saline with Tween-80 100 % of control

CCCCCC(Oc1ccc(Cl)cc1Cl)C(=O)O (configuration not stated)
inactive: [5] 100 % of control | [6] 97 % of control

COc1cccc(NC(=S)Nc2ccccc2)c1
inactive: [5] 95 % of control | [6] 88 % of control | dose: 400.0 mg/kg/injection, schedule: Q04DX002 (ip), vehicle: Klucel (hydroxypropylcellulose) (HPC) 111 % of control

CC(=O)Nc1c(Br)cc2c(c1Br)C(=O)c1cc(Br)ccc1-2
inactive: [7] 100 % of control | [8] 100 % of control | [9] 100 % of control

CSc1nc(N)cc(OCc2ccccc2)n1
inactive: dose: 50.0 mg/kg/injection, schedule: Q01DX001 (ip), vehicle: saline with Tween-80 100 % of control | [10] 97 % of control | [11] 92 % of control

S=c1[nH]ncn1-c1ccccc1
inactive: [12] 92 % of control | [13] 93 % of control

CC(C)CC(CC(C)C)=NO
inactive: [7] 104 % of control | [8] 101 % of control | [9] 103 % of control

COc1ccc(OC)c(COC(=O)c2ccccc2)c1COC(=O)c1ccccc1
inactive: [7] 95 % of control | [8] 101 % of control | [9] 95 % of control

Cn1cc(Cl)nc1CO
inactive: dose: 100.0 mg/kg/injection, schedule: Q01DX009 (ip), vehicle: saline sonified 91 % of control | dose: 100.0 mg/kg/injection, schedule: Q04DX003 (ip), vehicle: saline 91 % of control | dose: 200.0 mg/kg/injection, schedule: Q01DX009 (ip), vehicle: saline sonified 102 % of control | dose: 200.0 mg/kg/injection, schedule: Q04DX003 (ip), vehicle: saline 107 % of control | dose: 400.0 mg/kg/injection, schedule: Q01DX009 (ip), vehicle: saline sonified 93 % of control | dose: 400.0 mg/kg/injection, schedule: Q04DX003 (ip), vehicle: saline 102 % of control

Cc1ccccc1SC(=O)Nc1cc([N+](=O)[O-])ccc1Cl
inactive: [7] 94 % of control and 90 % of control | dose: 100.0 mg/kg/injection, schedule: Q01DX009 (ip), vehicle: carboxymethylcellulose (CMC) 96 % of control | dose: 100.0 mg/kg/injection, schedule: Q04DX002 (ip), vehicle: carboxymethylcellulose (CMC) 97 % of control and 99 % of control | dose: 100.0 mg/kg/injection, schedule: Q04DX003 (ip), vehicle: carboxymethylcellulose (CMC) 89 % of control | [8] 94 % of control and 88 % of control | dose: 200.0 mg/kg/injection, schedule: Q01DX009 (ip), vehicle: carboxymethylcellulose (CMC) 98 % of control | dose: 200.0 mg/kg/injection, schedule: Q04DX002 (ip), vehicle: carboxymethylcellulose (CMC) 94 % of control and 101 % of control | dose: 200.0 mg/kg/injection, schedule: Q04DX003 (ip), vehicle: carboxymethylcellulose (CMC) 96 % of control and 91 % of control | [9] 97 % of control and 90 % of control | dose: 400.0 mg/kg/injection, schedule: Q01DX009 (ip), vehicle: carboxymethylcellulose (CMC) 94 % of control | dose: 400.0 mg/kg/injection, schedule: Q04DX002 (ip), vehicle: carboxymethylcellulose (CMC) 95 % of control and 101 % of control | dose: 400.0 mg/kg/injection, schedule: Q04DX003 (ip), vehicle: carboxymethylcellulose (CMC) 96 % of control and 92 % of control

CCCCSP(Cc1ccccc1)SCCCC
inactive: dose: 100.0 mg/kg/injection, schedule: Q04DX003 (ip), vehicle: Klucel (hydroxypropylcellulose) (HPC) 96 % of control | dose: 200.0 mg/kg/injection, schedule: Q04DX003 (ip), vehicle: Klucel (hydroxypropylcellulose) (HPC) 94 % of control

CC(=O)NNCc1ccccc1
inactive: dose: 100.0 mg/kg/injection, schedule: Q01DX001 (ip), vehicle: Klucel (hydroxypropylcellulose) (HPC) 103 % of control | dose: 200.0 mg/kg/injection, schedule: Q01DX001 (ip), vehicle: Klucel (hydroxypropylcellulose) (HPC) 103 % of control | dose: 400.0 mg/kg/injection, schedule: Q01DX001 (ip), vehicle: Klucel (hydroxypropylcellulose) (HPC) 97 % of control

Cc1ccc(S(=O)(=O)Nc2ncc([N+](=O)[O-])s2)cc1
inactive: dose: 12.5 mg/kg/injection, schedule: Q01DX009 (ip), vehicle: saline with Tween-80 101 % of control | [3] 101 % of control | [4] 98 % of control and 90 % of control

NC(CCc1c[nH]c(=O)[nH]c1=O)C(=O)O (configuration not stated)
inactive: dose: 50.0 mg/kg/injection, schedule: Q01DX001 (ip), vehicle: saline 104 % of control | [14] 100 % of control | [15] 98 % of control | [16] 110 % of control

COc1ccc([N+](=O)[O-])cc1NC(=O)N/N=C(\C)C(C)(C)C
inactive: [12] 94 % of control | [13] 102 % of control | [17] 86 % of control

CN1C(=O)CC2(CCN(CCCC(=O)c3ccc(F)cc3)CC2)C1=O
inactive: dose: 3.12 mg/kg/injection, schedule: Q01DX009 (ip), vehicle: saline 103 % of control and 108 % of control | [18] 100 % of control | dose: 6.25 mg/kg/injection, schedule: Q01DX009 (ip), vehicle: saline 100 % of control and 101 % of control and 108 % of control | [19] 95 % of control | dose: 12.5 mg/kg/injection, schedule: Q01DX009 (ip), vehicle: saline 106 % of control and 112 % of control and 115 % of control | [20] 101 % of control | dose: 25.0 mg/kg/injection, schedule: Q01DX009 (ip), vehicle: saline 110 % of control | dose: 25.0 mg/kg/injection, schedule: Q04DX003 (ip), vehicle: alcohol 108 % of control | dose: 50.0 mg/kg/injection, schedule: Q01DX009 (ip), vehicle: Klucel (hydroxypropylcellulose) (HPC) 110 % of control | dose: 50.0 mg/kg/injection, schedule: Q01DX009 (ip), vehicle: saline 120 % of control and 124 % of control | dose: 50.0 mg/kg/injection, schedule: Q04DX003 (ip), vehicle: alcohol 106 % of control | dose: 100.0 mg/kg/injection, schedule: Q04DX003 (ip), vehicle: alcohol 106 % of control

CCc1ccccc1NC(=O)NCc1ccco1
inactive: [12] 101 % of control | [13] 92 % of control

O=[N+]([O-])c1cc(C(F)(F)C(F)(F)C(F)(F)c2ccc(O)c([N+](=O)[O-])c2)ccc1O
inactive: dose: 25.6 mg/kg/injection, schedule: Q04DX002 (ip), vehicle: saline with Tween-80 95 % of control | dose: 64.0 mg/kg/injection, schedule: Q04DX002 (ip), vehicle: saline with Tween-80 100 % of control | dose: 160.0 mg/kg/injection, schedule: Q04DX002 (ip), vehicle: saline with Tween-80 92 % of control

CN(CC#N)c1ncnc(Cl)c1[N+](=O)[O-]
inactive: dose: 50.0 mg/kg/injection, schedule: Q01DX001 (ip), vehicle: carboxymethylcellulose (CMC) 95 % of control | [7] 98 % of control | [8] 88 % of control | [9] 98 % of control

CC1C(=O)CCCC1=O
inactive: [12] 101 % of control | [13] 101 % of control | [17] 95 % of control

O=C1OCCN1NCc1ccc([N+](=O)[O-])o1
inactive: [14] 92 % of control | [15] 103 % of control | [16] 101 % of control

CC1CCC2(C)CCC3(C)C(=CCC4C5(C)CCC(OC(=O)c6ccccc6)C(C)(C)C5CCC43C)C2C1C (configuration not stated)
inactive: [10] 96 % of control | [11] 102 % of control

CN(C)C(=S)SCC(=O)c1ccccc1
inactive: dose: 2.5 mg/kg/injection, schedule: Q01DX009 (ip), vehicle: saline with Tween-80 93 % of control | [1] 89 % of control | [2] 105 % of control

CCC(=O)OC1(c2ccccc2)CCN(CCC(O)c2ccccc2)CC1 (configuration not stated)
inactive: dose: 3.13 mg/kg/injection, schedule: Q01DX009 (ip), vehicle: Klucel (hydroxypropylcellulose) (HPC) 98 % of control | [18] 104 % of control | [19] 95 % of control | [20] 94 % of control
